Like-named read-outs stand apart in the source and are kept apart here. Where only a bound is given, the exact number is not on record here.

What all share (type): physicochemical
Series [1] is described as follows: Interconversion study of potassium salt Form 1 and Form 2 (slurry of equal amounts). The conditions noted are these: 20 V, stirred overnight. As to the method:
Interconversion study were performed in MeOH/EA (1/9, RT or 50° C.) and acetone/water (20/1, RT or 50° C.). Equal amounts of Form 1 and Form 2 were slurried in specified solvents at different temperatures for certain time.

The nature of series [2]: Solubility in water and bio-relevant media at 37° C. (HPLC of filtrate, pH of filtrate, XRPD of filter cake). The conditions noted are these: for solubility at 0.5 h / solubility at 2 h / solubility at 24 h: 37 °C, thermodynamic from solid; for solubility at 0.5 h / solubility at 2 h / solubility at 24 h / Solubility (mg/mL) 0.5 h / Solubility (mg/mL) 2 h / Solubility (mg/mL) 24 h: 37° C.; for solubility at 0.5 h: read-out: Solubility (mg/mL) 0.5 h; for solubility at 2 h: read-out: Solubility (mg/mL) 2 h; for solubility at 24 h: read-out: Solubility (mg/mL) 24 h; for XRPD: filter cake obtained at 2 or 24 hours; for PH 0.5 h / PH 2 h / PH 24 h: pH of the filtrate. As to the method:
Solubility of Form I of free acid, Form 1 and Form 2 of potassium salt, and Form A of sodium salt were tested in water and in bio-relevant media of Simulated Intestinal Fluid (SIF), Simulated Gastric Fluid (SGF), Fasted State Simulated Intestinal Fluid (FaSSIF), and Fed State Simulated Intestinal Fluid (FeSSIF) at 37° C. up to 24 hours. About 12 mg of the sample was weighed into sample vials and then 1.5 mL of each media was added to make suspensions respectively. All suspensions were shaken at 37° C. with 200 rpm.

A short description of series [3]: Solid state stability at 60° C. and 40° C./75% RH for 7 days (HPLC purity, XRPD). On the procedure:
HPLC analysis was performed with an Agilent HPLC 1260 series instrument.
Appropriate amount of free acid Form I, potassium salts Form 1 and Form 2, and sodium salt Form A were placed at 60° C. and 40° C./75% RH for 7 days. At 0 and 7 days, the samples were dissolved in diluent to prepare a solution of 0.5 mg/mL for HPLC purity analysis. Solid samples were analyzed by XRPD to check the crystal form.

The nature of series [4]: Dynamic Vapor Sorption (DVS). As to the method:
Dynamic Vapor Sorption (DVS): Moisture sorption/desorption data was collected on a IGASorp DVS. The sample was placed into a tarred sample chamber and weighed automatically. The sample was dried at 50° C. until the % RH was less than 0.3% and cooled to 25° C. Set the instrument parameters as below.

The mark [5] stands for this setting: FaSSIF (Fasted State Simulated Intestinal Fluid), fassif, FaSSIF, LOQ is 0.5 μg/mL.
Where [6] appears, read: FeSSIF (Fed State Simulated Intestinal Fluid), fessif, FeSSIF.
Setting [7] is: water, water, Water, LOQ is 0.5 μg/mL.

For `Cc1nn(-c2cc(Cl)c(Oc3cc(C(C)C)c(=O)[nH]n3)c(Cl)c2)c(=O)[n-]c1=O.[K+]` [Potassium Salts Form 1 and 2], the XRPD result is “Form 2” in series [1] (50° C., Acetone/Water (19/1)); “Form 1” in series [1] (50° C., MeOH/EtOAc (1/9)); “Form 2” in series [1] (RT, Acetone/Water (19/1)); “Form 1” in series [1] (RT, MeOH/EtOAc (1/9)).

In the case of `Cc1nn(-c2cc(Cl)c(Oc3cc(C(C)C)c(=O)[nH]n3)c(Cl)c2)c(=O)[n-]c1=O.[Na+]` [Sodium salt Form A], the figures for the solubility at 0.5 h in series [2] (setting [5]), in series [2] (setting [6]) and in series [2] (setting [7]) were 0.0013 mg/mL, 0.0011 mg/mL and 2.8 mg/mL, respectively. The results for the solubility at 2 h in series [2] (setting [5]), in series [2] (setting [6]) and in series [2] (setting [7]) were 0.015 mg/mL, 0.0029 mg/mL and 3.51 mg/mL, respectively. Besides, the solubility at 24 h in series [2] (FaSSIF (Fasted State Simulated Intestinal Fluid), fassif, FaSSIF) was 0.013 mg/mL; in series [2] (setting [6]), 0.012 mg/mL; in series [2] (setting [7]) it was 4.57 mg/mL. Also, the “Solubility (mg/mL) 0.5 h” value in series [2] (SGF, LOQ is 0.5 μg/mL) was “<LOQ”; in series [2] (SIF, LOQ is 0.5 μg/mL) it was “<LOQ”. For the same compound, the “Solubility (mg/mL) 2 h” value in series [2] (SGF, LOQ is 0.5 μg/mL) was “<LOQ”; in series [2] (SIF, LOQ is 0.5 μg/mL), “<LOQ”. For the same compound, the “Solubility (mg/mL) 24 h” value in series [2] (SGF, LOQ is 0.5 μg/mL) was “<LOQ”; in series [2] (SIF, LOQ is 0.5 μg/mL), “<LOQ”. Besides, the XRPD result in series [2] (FaSSIF) is “Free acid”; in series [2] (FeSSIF), “Free acid”; in series [2] (SGF), “Free acid”; in series [2] (SIF) it was “Free acid”; in series [2] (Water), “Free acid +”. Also, the “PH 0.5 h” value in series [2] (FaSSIF) stood at 7.07; in series [2] (FeSSIF) it was 5.09; in series [2] (SGF) it was 1.24; in series [2] (SIF), 7.23; in series [2] (Water), 10.76. For the same compound, the “PH 2 h” value in series [2] (FaSSIF) came to 7.33; in series [2] (FeSSIF), 5.18; in series [2] (SGF), 1.24; in series [2] (SIF), 7.60; in series [2] (Water), 10.81. Moreover, the “PH 24 h” value in series [2] (FaSSIF) is 8.27; in series [2] (FeSSIF), 5.26; in series [2] (SGF), 1.24; in series [2] (SIF), 7.65; in series [2] (Water), 10.63. The “chemical and physical stability” value in series [3] (40° C./75% RH and 60° C. for 7 days) is “chemically and physically stable”. In addition, the “Purity at Day 7 (Area %) 40° C./75% RH” value in series [3] (7 days at 40° C./75% RH, HPLC) amounted to 98.02 Area %. Moreover, the “Purity at Day 7 (Area %) 60° C.” value in series [3] (7 days at 60° C., HPLC) is reported as 98.01 Area %. Moreover, the “XRPD 40° C./75% RH” value in series [3] (crystal form after 7 days at 40° C./75% RH) is “Unchanged”. The “XRPD 60° C.” value in series [3] (crystal form after 7 days at 60° C.) is “Unchanged”. In addition, the “Initial Purity (Area %)” value in series [3] (day 0, HPLC) came to 97.98 Area %. In series [4] (DVS), the hygroscopicity entry was “slightly hygroscopic”. Further, the “water uptake / weight gain by DVS” value in series [4] (at 80% RH (Form I: 0 to 80% RH), 25° C.) is listed as “about 1.6%”.
